Assays:
[1] = system: 2-ketoaldonate reductase [2KR(B)]; test: induction of 2-keto reductase activity by carbohydrates in LB media; format: cell-based, E. herbicola 21998tkrAΔ3; conditions: compound as inducer in LB media
Source text: The fact that idonate was still produced in the tkrA^- mutant led to the discovery of a second 2-ketoaldonate reductase [2KR(B)], encoded by an inducible tkrB gene. This protein can be purified from the tkrAΔ3 strain and the gene has been cloned (see below). Evidence that 2KR(A) and 2KR(B) are in fact different enzymes is based on observed differences in protein sequence, molecular weight on SDS gels, subunit composition, migration on native gels, kinetic parameters, and gene sequence. 2KR(B) activity is inducible in LB media by a variety of carbohydrates which are listed on Table 1. […] 2-keto reductase activity is found widely elsewhere in nature. We have also identified 2-keto aldonate reductase activity in both E. coli MM294 and Corynebacterium sp. ATCC 31090, neither of which is known to be ketogenic nor produce 2-KLG as a natural product.

[2] = system: 5-KDG reductase; test: induction of 5-keto reductase activity by carbohydrates in LB media; format: cell-based, E. herbicola 21998tkrAΔ3; conditions: compound as inducer in LB media
[3] = target: gluconate dehydrogenase; test: membrane bound gluconate dehydrogenase assay (crude membrane fraction); conditions: read-out: Ki, competitive inhibition of gluconate dehydrogenase
[4] = system: idonate dehydrogenase; test: membrane bound idonate dehydrogenase assay (crude membrane fraction)
[5] = system: E. herbicola; test: growth on sole carbon source in minimal media; format: cell-based
Experimental: Although a large number of potential metabolic routes from glucose exist, IA is likely produced from either 2-KLG or 5-keto-D-gluconate (5-KDG) catalyzed by a stereospecific pyridine nucleotide-linked reductase. Evidence for both the 5-KDG route in Fusarium species (Takagi, Agric. Biol. Chem. 26:719 [1962]) and the 2-KLG route in a variety of microorganisms has been observed (Makeover et al., supra). Shake flask incubations of whole cells of E. herbicola at 11 OD550 containing 12 g/1 of either 2-KLG or 5-KDG were carried out. Approximately 4 g/1 of IA was produced in flasks containing 2-KLG in 40 hours. The total IA and 2-KLG concentration remained constant throughout the bioconversion. […] Furthermore, E. herbicola was grown using either 5-KDG, G, GA, 2-KDG, or 2,5-DKG as the sole carbon source in minimal media. […] Thus the IA produced in E. herbicola into which an expression vector encoding 2,5-DKG reductase has been transferred is derived from 2-KLG catabolism.

[6] = system: tac promoters; test: modulation of expression level by sequential increases in IPTG; format: cell-based, Erwinia herbicola; conditions: for 2-KLG + IA/DKG: fractional weight basis relative to 2,5-DKG
Experimental: Additional experiments were carried out modulating the expression level by sequential increases in IPTG to induce the tac promoters.
In the table below, IPTG is the concentration of isopropylthio-β-galactoside added to the culture medium. Enzyme activity is the sum of the activities of 2,5-DKG reductase and 2-keto aldonate reductase per mg of protein (measured using the Bradford assay, supra). 2-KLG is measured on gram per gram dry cell weight per hour. Finally, the 2-KLG and idonate is measured on a fractional weight basis relative to 2,5-DKG.

SMILES	2 KR Spec. Act. [1] [µmol/min/mg]	5 KR Spec. Act. [2] [µmol/min/mg]	further results
O=C(CO)[C@@H](O)[C@H](O)[C@H](O)CO [D-fructose]	0.028	0.032	
O=C(O)C(=O)[C@@H](O)[C@H](O)[C@H](O)CO [2-KDG, 2-keto-D-gluconate]	0.045	0.143	Ki [3]: > 10 mM; inhibition of idonate dehydrogenase ([4]; crude membrane fraction): but not idonate dehydrogenase
O=C(O)C(=O)[C@@H](O)[C@H](O)[C@@H](O)CO [2-KLG, 2-keto-L-gulonic acid]	0.014	0.061	growth using compound as the sole carbon source [5]: did not grow; Ki ([4]; read-out: Ki, competitive inhibition of idonate dehydrogenase, crude membrane fraction): 13 mM
O=C(O)[C@H](O)[C@@H](O)[C@H](O)[C@H](O)CO [GA, D-gluconate]	0.020	0.144	
OCC(O)CO [D-glycerol]	0.024	0.035	
O=C(CO)[C@@H](O)[C@H](O)[C@@H](O)C(=O)O [5-KDG, 5-keto-D-gluconate]	0.119	0.105	
CC(C)S[C@@H]1O[C@H](CO)[C@H](O)[C@H](O)[C@H]1O [IPTG, isopropylthio-β-galactoside]			2-KLG Prod. Rate ([6]; [IPTG] 0.001 mM): 0.000 g/g-DCW-Hr; Enzyme Activity (sum of 2,5-DKG reductase and 2-keto aldonate reductase) ([6]; [IPTG] 0.001 mM): 0.029 umole/mg-P-min; 2-KLG + IA/DKG ([6]; [IPTG] 0.001 mM): 0.000; 2-KLG Prod. Rate ([6]; [IPTG] 0.005 mM): 0.004 g/g-DCW-Hr; Enzyme Activity (sum of 2,5-DKG reductase and 2-keto aldonate reductase) ([6]; [IPTG] 0.005 mM): 0.051 umole/mg-P-min; 2-KLG + IA/DKG ([6]; [IPTG] 0.005 mM): 0.025; 2-KLG Prod. Rate ([6]; [IPTG] 0.050 mM): 0.062 g/g-DCW-Hr; Enzyme Activity (sum of 2,5-DKG reductase and 2-keto aldonate reductase) ([6]; [IPTG] 0.050 mM): 0.100 umole/mg-P-min; 2-KLG + IA/DKG ([6]; [IPTG] 0.050 mM): 0.350; 2-KLG Prod. Rate ([6]; [IPTG] 0.500 mM): 0.126 g/g-DCW-Hr; Enzyme Activity (sum of 2,5-DKG reductase and 2-keto aldonate reductase) ([6]; [IPTG] 0.500 mM): 0.140 umole/mg-P-min; 2-KLG + IA/DKG ([6]; [IPTG] 0.500 mM): 0.530
O=C(O)C(=O)[C@@H](O)[C@H](O)C(=O)CO [2,5-DKG, 2,5-diketo-D-gluconic acid]	0.122	0.103	
O=C[C@H](O)[C@@H](O)[C@H](O)[C@H](O)CO [D-glucose]	0.167	0.27	
O=C(O)[C@H](O)[C@@H](O)[C@H](O)[C@@H](O)CO [IA, L-idonic acid]			growth using compound as the sole carbon source [5]: did not grow; Km ([4]; read-out: apparent Km, idonate dehydrogenase activity, pH 6.0, 25° C.): 20 mM
OC[C@@H](O)[C@@H](O)[C@H](O)[C@H](O)CO [D-mannitol]	0.027	0.032	

From patent publication US5032514A, “Metabolic pathway engineering to increase production of ascorbic acid intermediates” (Genentech, Inc., priority 1988, dated 1991)
